This is an account of results in PubChem BioAssay AID179 (DTP/NCI, 2004).

Broadly, the EC50 is the concentration at which the effect is half-maximal. The term IC50 denotes the concentration that inhibits the measured activity by half. A low value points to inhibition by little substance.

Structures are written as SMILES. The source made the active and inactive calls.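 How the source made its calls: active means compounds giving half or more protection of infected cells from virus-caused growth loss, again on retest; inactive means the rest.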

The subject of the test is CEM cells HIV-1 protection, formazan growth assay. Description: NCI AIDS Antiviral Assay. As to conditions: for IC50: measured here: growth of uninfected CEM cells. Put shortly:
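Protection of CEM cells against HIV-1 measured as cell growth via soluble formazan read-out, with five concentrations tested on both infected and uninfected cells; failure to protect may reflect toxicity.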

Consider `C/C(=N\NC(=O)C[n+]1ccccc1)c1sc(-c2nc(C)c(/C(C)=N/NC(=O)C[n+]3ccccc3)s2)nc1C`, for which the EC50 was above 30.2 µM and the IC50 is above 30.2 µM. As for `COc1cccc2c1C(=O)C1=C(C2=O)C(O)CC(C)(C)O1` (stereo not drawn), the EC50 was above 200 µM and the IC50 stood at 33.9 µM.

For the compound `COc1ccc2c(c1)CC1c3c(ccc(OC)c3O)CC2N1C` (stereo not drawn), the EC50 is above 43.7 µM and the IC50 was determined as 20.4 µM.

With `O=c1cn[nH]c2nc3ccccc3n12`, the EC50 was above 200 µM and the IC50 is above 200 µM.

Turning to `[O-]/[N+](=N/c1ncc(-c2ccccc2)cn1)c1ncc(-c2ccccc2)cn1`, the EC50 is above 200 µM and the IC50 came out at 31.6 µM. For the compound `Nc1ccc2cc(S(=O)(=O)O)c(N=Nc3ccc(-c4ccc(N=Nc5c(S(=O)(=O)O)cc6cc(S(=O)(=O)O)cc(N)c6c5O)cc4)cc3)c(O)c2c1`, the outcome was inactive. As to `Cc1occc1C(=S)Nc1ccc(Cl)c(C(=O)OCC(C)C)c1`, the EC50 is 0.0123 µM and the IC50 amounted to 18.6 µM. In the case of `CC1(C)C2CCC1(CS(=O)(=O)Nc1ccccc1)C(=O)C2` (stereo not drawn), the EC50 was above 200 µM and the IC50 is above 200 µM.

`O=C(C=Nc1ccccc1C(=O)[O-])c1ccco1.O=C(C=Nc1ccccc1C(=O)[O-])c1ccco1.[Co+2]`: the EC50 is above 1.38 µM and the IC50 was above 1.38 µM. As to `COC1=CC(=O)C(Br)=CC1=O`, the outcome was inactive.

Turning to `CCN(CC)c1ccc(N=C2C=C(Cl)C(=O)c3ncccc32)c(C)c1`, the result was inactive. `O=[N+]([O-])c1ccc2nc3ccscc-3c2c1`: the EC50 is above 15.5 µM and the IC50 is 2.88 µM. For `Cc1cc(C)c2c(=N)c3ccccc3n(CCCCCCCCn3c4ccccc4c(=N)c4c(C)cc(C)nc43)c2n1`, the EC50 was above 2 µM and the IC50 worked out at 0.251 µM.

For `O=C(Nc1ccc(OCC2=NCCN2)cc1)c1ccc(C(=O)Nc2ccc(OCC3=NCCN3)cc2)cc1`, the EC50 was above 200 µM and the IC50 is above 200 µM. `O=[N+]([O-])/C(C(Cl)=C(Cl)Cl)=C(\SCc1ccccc1)N1CCCCC1`: the EC50 is above 200 µM and the IC50 is above 200 µM. `O=C1CN(Cc2ccc(Cl)cc2)CC(=O)N2Cc3ccccc3CN12`: the EC50 is above 191 µM and the IC50 came to 148 µM. Turning to `CC(C)(CC#N)c1cc(CC(C)(C)c2cc(CC(C)(C)c3cc(C(C)(C)C4(C)OCCO4)no3)no2)no1`, the EC50 is above 200 µM and the IC50 came out at 60.3 µM. As to `O=C1c2c(O)ccc(O)c2C(=O)c2c(NCCCCCO)ccc(NCCCCCO)c21`, the outcome was inactive. On the same count and under the same terms, to `CCOC(CC(=O)NCCNC(C)=O)OCC` belongs “inactive”. Turning to `Cc1cc(O)cc2oc(=O)c3c(O)cc(O)cc3c12`, the EC50 is above 479 µM and the IC50 amounted to 12.6 µM. Turning to `O=C(NC1CCC[C@H]1OC(=O)c1ccccc1)c1ccccc1` (stereo partly drawn), the result was inactive. As for `COc1ccc(/C=C/C(=O)c2sc(-n3nc(-c4ccccc4)cc3-c3ccccc3)nc2C)cc1`, the EC50 was above 11 µM and the IC50 is above 11 µM. As for `COC1=CC(=O)C(C#CCOCc2ccccc2)=CC1=O`, the EC50 is above 200 µM and the IC50 is 14.8 µM.

With `CC(=O)c1sc(=N)n(-c2c(C)cccc2C)c1C`, the EC50 is above 200 µM and the IC50 is above 200 µM.

Turning to `COC(=O)c1ccccc1COC(=O)c1cc(C(=CCC[C@H]2CC[C@@]3(C)[C@@H](CC[C@@H]4[C@@H]3CC[C@]3(C)[C@@H](C(C)CCCC(C)C)CC[C@@H]43)C2)c2cc(Cl)c(OCc3ccccc3C(=O)OC)c(C(=O)OCc3ccccc3C(=O)OC)c2)cc(Cl)c1OCc1ccccc1C(=O)OC` (stereo partly drawn), the EC50 is above 200 µM and the IC50 is above 200 µM. With `O=C1OC2(c3ccc(O)cc3Oc3cc(O)ccc32)c2ccccc21`, the EC50 was above 50.1 µM and the IC50 is above 50.1 µM. Turning to `CCOC(=O)C1=C(NC)OC/C1=N\NC(=O)c1ccccc1O`, the EC50 is above 93.3 µM and the IC50 worked out at 14.1 µM.

Regarding `O/N=C1/C(=C/c2ccccc2)CCCC1C(NO)c1ccccc1` (stereo not drawn), the EC50 was above 81.3 µM and the IC50 is above 81.3 µM. As for `Fc1ccc(C=NC23CC4CC(CC(C4)C2)C3)cc1`, the EC50 is above 28.2 µM and the IC50 is above 28.2 µM.

Take `CC12CC(OC(=O)[C@]1(C)O)[C@@H]([C@]1(O)CC[C@H]3[C@@H]4C[C@H]5O[C@]56[C@@H](O)C=CC(=O)[C@]6(C)[C@H]4CC[C@@]31C)C2` (stereo partly drawn): the EC50 was above 3.89 µM and the half-maximal inhibitory concentration (IC50) came to 0.145 µM. Turning to `Cn1c(=O)c2ncc(N)nc2n(C)c1=O`, the EC50 is above 100 µM and the IC50 is above 100 µM. On to `O=[N+]([O-])c1ncc(N(CCO)CCO)s1`, for which the EC50 is above 200 µM and the IC50 is 85.1 µM. For the compound `COC(=O)C1=C(C(=O)OC)C(N(C)C)C(C(=O)OC)=C(C(=O)OC)S1`, the EC50 was above 200 µM and the IC50 was above 200 µM. As to `Cc1ccccc1-n1c(=O)c2ncn(CCCl)c2n(-c2ccccc2C)c1=S`, the EC50 is above 200 µM and the IC50 was 102 µM.

In the case of `N#CCCCCCOCCOCCOCCOCCOCCCCCC#N`, the outcome was inactive.

Take `Cn1c(=O)c2c(no[n+]2[O-])n(C)c1=O`: the EC50 is above 200 µM and the IC50 was 13.2 µM. In the same order, the values of `O=C(Nc1cccc(C(F)(F)F)c1)C(=O)C(C(=O)c1ccc2ccccc2c1)C1OC(=O)c2ccccc21` (stereo not drawn) are above 50.1 µM and 21.9 µM. Consider `O=C(NCc1ccccc1O)c1ccc(O)cc1O`, for which the EC50 was above 200 µM and the IC50 was 110 µM. Consider `O=C1c2c(O)cccc2C(C2OC(CO)C(O)C(O)C2O)c2cc(CO)cc(O)c21` (stereo not drawn), for which the EC50 is above 603 µM and the IC50 stood at 389 µM. For `CC(C)C[P+](c1ccccc1)(c1ccccc1)c1ccccc1`, the EC50 is above 20 µM and the IC50 amounted to 2.19 µM. Turning to `O=C(O)C(O)(c1ccccc1)c1ccsc1` (stereo not drawn), the EC50 was above 200 µM and the IC50 is above 200 µM.

On to `O=Cc1ccc2c(c1I)OCO2`, for which the EC50 is above 67.6 µM and the IC50 came out at 38.9 µM. Consider `COc1ccc(C2=NNC(=O)CC2)cc1OC`, for which the EC50 is above 1070 µM and the IC50 was 550 µM.

Consider `Cc1cn(C2C=CC(COP(=O)(OCC(=O)C(C)(C)C)OCC(=O)C(C)(C)C)O2)c(=O)[nH]c1=O` (stereo not drawn), for which the EC50 was 1.29 µM and the IC50 is above 200 µM. `O=S1(=O)CCN(Cc2ccccc2)/C1=N\S(=O)(=O)c1ccc(Cl)cc1`: the EC50 was above 200 µM and the IC50 was found to be 17 µM.

In the case of `C[C@H]1CC(=O)C2=CCCC3(SCCCS3)[C@@H]2[C@H]1CO`, the result was inactive. As to `Cc1ccc(S(=O)(=O)N2CCNCCN(S(=O)(=O)c3ccc(C)cc3)CCNCC2)cc1`, the EC50 was above 126 µM and the IC50 is 51.3 µM. Consider `CC(C)(C)c1ccc(SS(=O)(=O)c2ccc(C(C)(C)C)cc2)cc1`, for which the EC50 was 20 µM and the IC50 turned out to be 22.9 µM.

Regarding `CNC(=O)CCCN(C)C(=O)CCCCC(=O)N(C)C`, the EC50 was above 200 µM and the IC50 was above 200 µM.

Take `O=C(O)CSc1c([N+](=O)[O-])cc(C(F)(F)F)cc1[N+](=O)[O-]`: the EC50 was above 200 µM and the IC50 came out at 43.7 µM. On to `CN(C)c1ccc(C=Nc2ccc(/C=C3\C=Cc4ccccc43)cc2)cc1`, for which the EC50 was above 20.4 µM and the IC50 was above 20.4 µM.

Turning to `CCOC(=O)Cc1ccc(Nc2nc3ccccc3nc2C(=O)OCC)cc1`, the EC50 was 91.2 µM and the IC50 is above 200 µM. For `N#C/C(=C\n1ccc(=O)[nH]c1=S)c1nc2ccccc2s1`, the EC50 was above 200 µM and the IC50 was above 200 µM. As for `O=c1c2sc3nc(NCCN4CCCCC4)ncc3c2ncn1-c1ccccc1`, the EC50 is above 200 µM and the IC50 was 117 µM. With `COC(=O)C(C(=O)C(=O)NC1=C(Cl)C(=O)c2ccccc2C1=O)c1csc(-n2nc(-c3ccccc3)cc2-c2ccccc2)n1` (stereo not drawn), the EC50 is above 11.2 µM and the IC50 was above 11.2 µM. For the compound `CC(C)=CCC1(c2ccccc2)Oc2cccnc2-n2cccc2C1=O` (stereo not drawn), the EC50 is above 200 µM and the IC50 turned out to be 28.8 µM. Consider `Cc1ccc2nc(Sc3c([N+](=O)[O-])ncn3C)[nH]c2c1`, for which the EC50 was above 5.01 µM and the IC50 was 4.79 µM. In the same order, the values of `CC(=O)[O-].O=C([N-]/N=C\c1ccoc1)c1ccncc1.[Ni+2].[OH3+].[OH3+].c1ccncc1` are above 200 µM and above 200 µM. Regarding `Cc1ccc(C(=O)Nc2ccc(S(=O)(=O)O)c3cc(S(=O)(=O)O)cc(S(=O)(=O)O)c23)cc1NC(=O)c1cccc(NC(=S)Nc2cccc(C(=O)Nc3cc(C(=O)Nc4ccc(S(=O)(=O)O)c5cc(S(=O)(=O)O)cc(S(=O)(=O)O)c45)ccc3C)c2)c1`, the EC50 is 100 µM and the IC50 worked out at 537 µM. For `O=C1C(c2ccccc2)=[N+]([O-])c2cc([N+](=O)[O-])c(/C(Cl)=C/c3ccccc3)cc21`, the outcome was inactive. `CCOc1cc(C=Nc2ccc(Oc3ccc(Cl)cc3)c(Cl)c2)ccc1O`: the EC50 is above 200 µM and the IC50 worked out at 29.5 µM. On to `COC(=O)C1=C(C)N2CCOC2CC1c1ccccc1` (stereo not drawn), for which the EC50 is above 200 µM and the IC50 was found to be 135 µM. Take `O=C(c1cccc([N+](=O)[O-])c1)c1c(O)c2ccccc2oc1=O`: the EC50 was above 200 µM and the IC50 turned out to be 95.5 µM. Turning to `C=CCOC(=O)Cn1ccc(=O)[nH]c1=O`, the EC50 is above 200 µM and the IC50 is above 200 µM. `CCN=C1NN=C(c2ccccc2)c2cc(Cl)ccc2N1`: the EC50 was above 120 µM and the IC50 came out at 21.9 µM.

Consider `C/C(=N\NS(=O)(=O)c1ccc([N+](=O)[O-])cc1)c1ccc[n+]([O-])n1`, for which the outcome was inactive. For `NS(=O)(=O)c1nnc(NC(=O)C23CC4CC(CC(C4)C2)C3)s1`, the EC50 is above 200 µM and the IC50 was 81.3 µM. In the case of `O=c1ccn(C2CC(O)C(CO)O2)c(=O)[nH]1` (stereo not drawn), the EC50 is above 589 µM and the IC50 was found to be 309 µM. On to `CC1(C)Cc2c(C#N)c(N)c3c(c2CO1)C(=O)OC3=O`, for which the EC50 was above 19.1 µM and the IC50 was above 19.1 µM.
